In PMC9343605, “Structural insights into ligand recognition and selectivity of somatostatin receptors” (Cell Research, 2022):
Values belong to the compound of their own block, whether it stands above or below them.

Columns and labels:
SSTR4 [1] = molecular target: SSTR4 (Homo sapiens, UniProt P31391, Y276A); experiment: cAMP accumulation assay (agonist-induced inhibition of forskolin-stimulated cAMP), SSTR4, HEK293F; type: cell-based; set-up: expressed in transfected cells; host or cells: HEK293F; conditions: SSTR4 mutant Y276^6.52A; mean ± SEM;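 note: transiently transfected cells incubated 40 min at room temperature with 4 µM forskolin and graded ligand, cAMP read by LANCE Ultra TR-FRET kit, values normalized to WT receptor per ligand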
Protocol: (§2) HEK293F cells were transiently transfected with WT or mutant SSTR2/SSTR4 using transfection reagent (PEI MAX 2000, Polysciences) and incubated at 37 °C in 5% CO2. Forty-eight hours after transfection, cells were centrifuged and resuspended in stimulation buffer (Hanks’ balanced salt solution (HBSS) supplemented with 5 mM HEPES, 0.5 mM IBMX and 0.1% (w/v) bovine serum albumin (BSA), pH 7.4) to a density of 200,000 cells/mL and added to 384-well white plates (PerkinElmer, 1000 cells/well). cAMP accumulation was measured by a LANCE Ultra cAMP kit (PerkinElmer) according to the manufacturer’s instructions. In brief, transfected cells were incubated for 40 min in stimulation buffer with 2.5 μL forskolin (SSTR2: 2 μM; SSTR4: 4 μM) and gradient concentration of ligand at RT. The reactions were stopped by addition of lysis buffer containing 5 μL Eu-cAMP tracer and 5 μL ULight-anti-cAMP. Plates were then incubated for 60 min at RT and time-resolved FRET signals were measured at 620 nm and 665 nm by an EnVision multilabel plate reader (PerkinElmer). Data were analyzed in GraphPad PRISM 8 and all values were normalized to the WT for each ligand. All outcomes were repeated at least three times.
(§3) aMutants represent that mutations were introduced separately into the WT receptors and
(§4) transiently expressed in HEK 293F cells.
(§5) bThe EC50 ratio was shown as EC50(mutant)/EC50(WT), indicating the shift between the WT
(§6) and mutant curves, reflecting the effect of the mutations on receptor signaling.
(§7) cData are shown as mean ± S.E.M. from at least three independent experiments
(§8) performed in technical triplicate. One-way ANOVA was performed followed by
(§9) Dunnett’s post-test and compared with WT. The P value was defined as: *P<0.05;
(§10) d The span is defined as the window between the maximal agonists response (Emax) and
(§11) e Sample size; the number of independent experiments performed in technical triplicate.
(§12) f Receptor expression level of HEK 293F cells was determined independently by flow
(§13) cytometry with anti-FLAG antibody and shown as per cent compared to the WT.

SSTR4 [2] = molecular target: SSTR4 (Homo sapiens, UniProt P31391, T215A); experiment: as above; type: cell-based; set-up: expressed in transfected cells; host or cells: HEK293F; conditions: SSTR4 mutant T215^5.42A; mean ± SEM
Protocol: as §2, §3, §4, §5, §6, §7, §8, §9, §10, §11, §12, §13

SSTR4 [3] = molecular target: SSTR4 (Homo sapiens, UniProt P31391); experiment: as above; type: cell-based; set-up: expressed in transfected cells; host or cells: HEK293F; conditions: WT SSTR4, mean ± SEM
Protocol: as §2, §3, §4, §5, §6, §7, §8, §9, §10, §11, §12, §13

SSTR4 [4] = molecular target: SSTR4 (Homo sapiens, UniProt P31391, D126A); experiment: as above; type: cell-based; set-up: expressed in transfected cells; host or cells: HEK293F; conditions: SSTR4 mutant D126^3.32A; mean ± SEM
Protocol: as §2, §3, §4, §5, §6, §7, §8, §9, §10, §11, §12, §13

SSTR4 [5] = molecular target: SSTR4 (Homo sapiens, UniProt P31391, M130A); experiment: as above; type: cell-based; set-up: expressed in transfected cells; host or cells: HEK293F; conditions: SSTR4 mutant M130^3.36A; mean ± SEM
Protocol: as §2, §3, §4, §5, §6, §7, §8, §9, §10, §11, §12, §13

SSTR4 [6] = molecular target: SSTR4 (Homo sapiens, UniProt P31391, F275A); experiment: as above; type: cell-based; set-up: expressed in transfected cells; host or cells: HEK293F; conditions: SSTR4 mutant F275^6.51A; mean ± SEM
Protocol: as §2, §3, §4, §5, §6, §7, §8, §9, §10, §11, §12, §13

SSTR4 [7] = molecular target: SSTR4 (Homo sapiens, UniProt P31391, N199A); experiment: as above; type: cell-based; set-up: expressed in transfected cells; host or cells: HEK293F; conditions: SSTR4 mutant N199^ECL2A; mean ± SEM
Protocol: as §2, §3, §4, §5, §6, §7, §8, §9, §10, §11, §12, §13

SSTR4 [8] = molecular target: SSTR4 (Homo sapiens, UniProt P31391, Q279A); experiment: as above; type: cell-based; set-up: expressed in transfected cells; host or cells: HEK293F; conditions: SSTR4 mutant Q279^6.55A; mean ± SEM
Protocol: as §2, §3, §4, §5, §6, §7, §8, §9, §10, §11, §12, §13

SSTR4 [9] = molecular target: SSTR4 (Homo sapiens, UniProt P31391, V264F); experiment: as above; type: cell-based; set-up: expressed in transfected cells; host or cells: HEK293F
Protocol: as §2, §3, §4, §5, §6, §7, §8, §9, §10, §11, §12, §13

SSTR4 [10] = molecular target: SSTR4 (Homo sapiens, UniProt P31391, Y301A); experiment: as above; type: cell-based; set-up: expressed in transfected cells; host or cells: HEK293F; conditions: SSTR4 mutant Y301^7.43A; mean ± SEM
Protocol: as §2, §3, §4, §5, §6, §7, §8, §9, §10, §11, §12, §13

SSTR4 [11] = conditions: SSTR4 selective agonist; cited from earlier work
Text: (§1) Along with increased knowledge of the pharmacological effects of these receptors, medical application of SST and its analogs has expanded. A considerable amount of effort has been made to develop new therapeutics for oncology of SSTRs. […] It was found recently that radiolabeled SSTR antagonists produced superi ...

SSTR4 [12] = molecular target: T1, SSTR4 (Homo sapiens, UniProt P31391, F211A); experiment: cAMP accumulation assay (agonist-induced inhibition of forskolin-stimulated cAMP), SSTR4, HEK293F; type: cell-based; conditions: SSTR4 mutant F211^5.38A; mean ± SEM;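 note: transiently transfected cells incubated 40 min at room temperature with 4 µM forskolin and graded ligand, cAMP read by LANCE Ultra TR-FRET kit, values normalized to WT receptor per ligand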
T1 construct: expressed in transfected cells; host or cells: HEK293F
Protocol: as §2, §3, §4, §5, §6, §7, §8, §9, §10, §11, §12, §13

SSTR4 [13] = experiment: as above; type: cell-based, human; conditions: for EC50 ratio: EC50(mutant)/EC50(WT)
Protocol: as §2, §3, §4, §5, §6, §7, §8, §9, §10, §11, §12, §13

SSTR4 [14] = molecular target: T2, SSTR4 (Homo sapiens, UniProt P31391, L297A); experiment: as above; type: cell-based; conditions: SSTR4 mutant L297^7.39A; mean ± SEM
T2 construct: expressed in transfected cells; host or cells: HEK293F
Protocol: as §2, §3, §4, §5, §6, §7, §8, §9, §10, §11, §12, §13

SSTR4 [15] = molecular target: T3, SSTR4 (Homo sapiens, UniProt P31391, V103L); experiment: as above; type: cell-based; conditions: SSTR4 mutant V103^2.60L; mean ± SEM
T3 construct: expressed in transfected cells; host or cells: HEK293F
Protocol: as §2, §3, §4, §5, §6, §7, §8, §9, §10, §11, §12, §13

SSTR4 [16] = molecular target: T4, SSTR4 (Homo sapiens, UniProt P31391, N293A); experiment: as above; type: cell-based; conditions: SSTR4 mutant N293^7.35A; mean ± SEM
T4 construct: expressed in transfected cells; host or cells: HEK293F
Protocol: as §2, §3, §4, §5, §6, §7, §8, §9, §10, §11, §12, §13

SSTR4 [17] = molecular target: T5, SSTR4 (Homo sapiens, UniProt P31391, N282A); experiment: as above; type: cell-based; conditions: SSTR4 mutant N282^6.58A; mean ± SEM
T5 construct: expressed in transfected cells; host or cells: HEK293F
Protocol: as §2, §3, §4, §5, §6, §7, §8, §9, §10, §11, §12, §13

SSTR4 [18] = molecular target: T6, SSTR4 (Homo sapiens, UniProt P31391, L123A); experiment: as above; type: cell-based; conditions: SSTR4 mutant L123^3.29A; mean ± SEM
T6 construct: expressed in transfected cells; host or cells: HEK293F
Protocol: as §2, §3, §4, §5, §6, §7, §8, §9, §10, §11, §12, §13

SSTR4 [19] = experiment: Whole cell binding assay, SSTR4, competition with 125I-Tyr11-SST14, CHO-K1; set-up: species or system human; conditions: IC50(mutant)/IC50(WT)
Protocol: For SSTR2 and SSTR4, CHO-K1 cells were cultured in F12 medium with 10% FBS and seeded at a density of 30,000 cells/well in Isoplate-96 plates (PerkinElmer). Twenty-four hours after transfection with the WT or mutant SSTR2/SSTR4, CHO-K1 cells were washed twice and incubated with blocking buffer (F12 supplemented with 25 mM HEPES and 0.1% (w/v) BSA, pH 7.4) for 2 h at 37 °C. […] Following incubation, cells were washed three times with ice-cold PBS and lysed by 50 μL lysis buffer (PBS supplemented with 20 mM Tris-HCl, 1% Triton X-100, pH 7.4). The radioactivity was subsequently counted (counts/min, CPM) in a scintillation counter (MicroBeta[2] Plate Counter, PerkinElmer) using a scintillation cocktail (OptiPhaseSuperMix, PerkinElmer). Data were analyzed by nonlinear regression using GraphPad PRISM 8.
aMutants represent that all mutations were introduced separately into the WT receptors
and expressed in CHO K1 cells.
bThe IC50 ratio was shown as IC50(mutant)/IC50(WT), indicating the shift between the WT
and mutant curves, reflecting the effect of the mutations on ligand binding.
cData are shown as mean ± S.E.M. form at least three independent experiments
as §8
Dunnett’s post-test and compared with WT.
as §10, §11

SSTR2 = conditions: cited from earlier work
[20] = test system: growth hormone and glucagon releases; conditions: full agonist; cited from earlier work
Text: as §1

Sequence of SSTR4 (Homo sapiens, UniProt P31391, V264F) (P31391 1-328 V264F): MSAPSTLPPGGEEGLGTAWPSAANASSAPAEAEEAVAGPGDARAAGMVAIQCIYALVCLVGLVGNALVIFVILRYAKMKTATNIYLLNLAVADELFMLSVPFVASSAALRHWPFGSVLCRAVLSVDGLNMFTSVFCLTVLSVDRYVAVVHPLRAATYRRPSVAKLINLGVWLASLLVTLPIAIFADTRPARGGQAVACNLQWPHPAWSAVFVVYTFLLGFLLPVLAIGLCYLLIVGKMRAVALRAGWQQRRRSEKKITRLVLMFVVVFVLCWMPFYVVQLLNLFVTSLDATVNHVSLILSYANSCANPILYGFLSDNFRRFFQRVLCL
T3 sequence (P31391 whole entry V103L): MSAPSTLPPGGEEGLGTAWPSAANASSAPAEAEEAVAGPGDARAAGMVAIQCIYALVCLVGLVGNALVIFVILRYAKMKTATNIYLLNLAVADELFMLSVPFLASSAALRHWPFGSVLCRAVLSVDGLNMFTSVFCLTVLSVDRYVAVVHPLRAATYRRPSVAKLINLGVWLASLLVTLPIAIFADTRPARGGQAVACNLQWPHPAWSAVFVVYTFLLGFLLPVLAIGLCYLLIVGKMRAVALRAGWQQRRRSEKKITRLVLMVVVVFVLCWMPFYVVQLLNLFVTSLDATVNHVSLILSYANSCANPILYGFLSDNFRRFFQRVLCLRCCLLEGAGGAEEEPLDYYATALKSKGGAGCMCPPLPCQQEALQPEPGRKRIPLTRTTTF
Sequence of SSTR4 (Homo sapiens, UniProt P31391, N199A) (P31391 whole entry N199A): as the sequence (P31391 whole entry V103L) above, with L103V, N199A counted along it
Sequence of SSTR4 (Homo sapiens, UniProt P31391, Y276A) (P31391 whole entry Y276A): as the sequence (P31391 whole entry V103L) above, with L103V, Y276A counted along it
T4 sequence (P31391 whole entry N293A): as the sequence (P31391 whole entry V103L) above, with L103V, N293A counted along it
Sequence of SSTR4 (Homo sapiens, UniProt P31391, T215A) (P31391 whole entry T215A): as the sequence (P31391 whole entry V103L) above, with L103V, T215A counted along it
T6 sequence (P31391 whole entry L123A): as the sequence (P31391 whole entry V103L) above, with L103V, L123A counted along it
T2 sequence (P31391 whole entry L297A): as the sequence (P31391 whole entry V103L) above, with L103V, L297A counted along it
T5 sequence (P31391 whole entry N282A): as the sequence (P31391 whole entry V103L) above, with L103V, N282A counted along it
T1 sequence (P31391 whole entry F211A): as the sequence (P31391 whole entry V103L) above, with L103V, F211A counted along it
Sequence of SSTR4 (Homo sapiens, UniProt P31391, Q279A) (P31391 whole entry Q279A): as the sequence (P31391 whole entry V103L) above, with L103V, Q279A counted along it
Sequence of SSTR4 (Homo sapiens, UniProt P31391) (P31391 whole entry): as the sequence (P31391 whole entry V103L) above, with L103V counted along it
Sequence of SSTR4 (Homo sapiens, UniProt P31391, M130A) (P31391 whole entry M130A): as the sequence (P31391 whole entry V103L) above, with L103V, M130A counted along it
Sequence of SSTR4 (Homo sapiens, UniProt P31391, Y301A) (P31391 whole entry Y301A): as the sequence (P31391 whole entry V103L) above, with L103V, Y301A counted along it
Sequence of SSTR4 (Homo sapiens, UniProt P31391, F275A) (P31391 whole entry F275A): as the sequence (P31391 whole entry V103L) above, with L103V, F275A counted along it
Sequence of SSTR4 (Homo sapiens, UniProt P31391, D126A) (P31391 whole entry D126A): as the sequence (P31391 whole entry V103L) above, with L103V, D126A counted along it

Span (SSTR4 [1]): 106±6 % of WT
pEC50 ± SEM (SSTR4 [1]): 6.71±0.08
Span (SSTR4 [2]): 92±5 % of WT
pEC50 ± SEM (SSTR4 [2]): 9.85±0.14
pEC50 ± SEM (SSTR4 [3]; HEK293F, at least three independent experiments): 9.73±0.08
Span (SSTR4 [3]; window between Emax and vehicle): 100±3 % of WT
Span (SSTR4 [4]): 23±28 % of WT
Span (SSTR4 [5]): 78±6 % of WT
pEC50 ± SEM (SSTR4 [5]): 9.12±0.19
Span (SSTR4 [6]): 22±7 % of WT
Span (SSTR4 [7]): 88±5 % of WT
pEC50 ± SEM (SSTR4 [7]): 10.23±0.14
Span (SSTR4 [8]): 98±6 % of WT
pEC50 ± SEM (SSTR4 [8]): 9.57±0.17
EC50 (SSTR4 [9]; Construct 4 SSTR4 (V264F, C-terminal truncation)): 30 pM
Span (SSTR4 [9]; Construct 4 SSTR4, mean ± SEM): 106±5 % of WT
pEC50 ± SEM (SSTR4 [9]; Construct 4 SSTR4, mean ± SEM): 10.46±0.13
Span (SSTR4 [10]): 64±7 % of WT
pEC50 ± SEM (SSTR4 [10]): 7.02±019
Span (SSTR4 [12]): 94±7 % of WT
pEC50 ± SEM (SSTR4 [12]): 8.20±0.17
EC50 ratio (SSTR4 [13]; Construct 4 SSTR4): 0.2
EC50 ratio (SSTR4 [13]; SSTR4 mutant F211^5.38A): 33
EC50 ratio (SSTR4 [13]; SSTR4 mutant L123^3.29A): 2
EC50 ratio (SSTR4 [13]; SSTR4 mutant L297^7.39A): 137
EC50 ratio (SSTR4 [13]; SSTR4 mutant M130^3.36A): 4
EC50 ratio (SSTR4 [13]; SSTR4 mutant N199^ECL2A): 0.3
EC50 ratio (SSTR4 [13]; SSTR4 mutant N293^7.35A): 3
EC50 ratio (SSTR4 [13]; SSTR4 mutant Q279^6.55A): 1
EC50 ratio (SSTR4 [13]; SSTR4 mutant T215^5.42A): 1
EC50 ratio (SSTR4 [13]; SSTR4 mutant V103^2.60L): 5
EC50 ratio (SSTR4 [13]; SSTR4 mutant Y276^6.52A): 1016
EC50 ratio (SSTR4 [13]; SSTR4 mutant Y301^7.43A): 497
EC50 ratio (SSTR4 [13]; WT SSTR4): 1
Span (SSTR4 [14]): 111 ± 8 % of WT
pEC50 ± SEM (SSTR4 [14]): 7.59±0.16
Span (SSTR4 [15]): 40±4 % of WT
pEC50 ± SEM (SSTR4 [15]): 9.00±0.25
Span (SSTR4 [16]): 87±6 % of WT
pEC50 ± SEM (SSTR4 [16]): 9.30±0.17
Span (SSTR4 [17]): 62±5 % of WT
pEC50 ± SEM (SSTR4 [17]): 9.99±0.21
Span (SSTR4 [18]): 61±6 % of WT
pEC50 ± SEM (SSTR4 [18]): 9.49±0.23
IC50 ratio (SSTR4 [19]; Construct 4 SSTR4): 0.5
IC50 ratio (SSTR4 [19]; SSTR4 mutant Q279^6.55A): 2
IC50 ratio (SSTR4 [19]; SSTR4 mutant T215^5.42A): 1
IC50 ratio (SSTR4 [19]; WT SSTR4): 1
SMILES: Cc1ccc(S(=O)(=O)N[C@@H](CCN)C(=O)N[C@@H](Cc2ccccc2)C(N)=O)c2ccccc12 [J-2156]
pain relief (SSTR4 [11]): mediates pain relief
effect of alanine mutation on agonist potency (SSTR4 [13]; SSTR4 F275^6.51 and Y276^6.52): significant reduction in agonist potency
decrease of potency (SSTR4 [13]; SSTR4 mutant V103^2.60 to leucine): ~ 5 fold

SMILES: C[C@@H](c1c[nH]c2ccccc12)[C@@H](NC(=O)N1CCC(n2c(=O)[nH]c3ccccc32)CC1)C(=O)N[C@@H](CCCCN)C(=O)OC(C)(C)C [L-054,522]
selectivity for SSTR2 (SSTR2): at least 3000 fold
effect on growth hormone and glucagon releases [20]: inhibitory effect on growth hormone and glucagon releases
